Patent US11247001B2, “Delivery device with cantilever structure and associated method of use” (De Motu Cordis Pty Ltd, priority 2016, dated 2022)

Assay: Particle deagglomeration: particle size distribution of the dose of dry powder emitted by the delivery device
Assay type: physicochemical
Settings: for emitted dose: dry powder emitted from delivery device comprising a container for storing dry powder (FIG. 28, FIG. 29); for deagglomerated to the typical inhalable range: share of dry powder, delivery device with container
Text: The performance of the delivery device can be measured by how closely the particle size distribution of the emitted powder approaches the original distribution.
An embodiment of the device that stored Mannitol on a corrugated reed was also compared to the embodiment of the device that stored and dispensed Mannitol from a blister.

| Compound | emitted dose | deagglomerated to the typical inhalable range | Fine Particle Fraction < 5 um (%) (Table 2, performance of device, N = 8, 68% CI) | FPF (device that dispensed from a blister) | FPF (device that dispensed from the reed (corrugated reed)) | FPF (device with a reed) | Fine Particle Fraction < 5 um (%) (device with reed, N = 10, 68% CI) | FPF (device without a reed) | Fine Particle Fraction < 5 um (%) (device without reed, same flow conditions, N = 10, 68% CI) | Fine Particle Fraction < 5 um (%) (powder stored in and dispensed from blister, N = 10, 68% CI) | Fine Particle Fraction < 5 um (%) (powder stored in and dispensed from corrugated reed, N = 5, 68% CI) |
| --- | --- | --- | --- | --- | --- | --- | --- | --- | --- | --- | --- |
| CNCC(O)c1ccc(O)c(O)c1 (stereo not shown) [Adrenaline] | 72.4-92.0% | about 35% | – | – | – | – | – | – | – | – | – |
| OC[C@@H](O)[C@@H](O)[C@H](O)[C@H](O)CO [Mannitol] | 75.3-86.1% | About 50% | 48.0-60.9% | about 43% | about 44% | about 43% | 38.9-47.4% | about 31% | 26.8-35.1% | 38.9-47.4% | 40.6-48.2% |
